# System: EpCAM+ epithelial cells in intestinal organoids
# Assay: Intestinal organoids from small intestine cultured with IFNγ, MHC class-II expression
# Assay type: cell-based, mouse
# Details: organoids from B6.MHC class-II-GFP or B6.WT mice cultured with IFNγ
# Description: High levels of IFN-γ are secreted by both ILC1 and by conventional T cells in the small intestine. The mechanisms controlling MHC class-II expression by IEC, focusing on interferon (IFN) γ signalling were delineated, since this cytokine is known to potently induce MHC class-II expression. […] To understand the potential sources of IFNγ driving the expression of MHC class II, Rag^−/− common-γ-chain^−/− which lack innate lymphocyte populations, and Rag^−/− mice that lack only conventional TCR-rearranged T cells, were analyzed. […] After TBI-induced inflammation, conventional T cells were required for the upregulation of MHC class II in the ileum. […] In contrast, TBI induced IFN-γ secretion from conventional T cells (CD4^+ Tcon, CD8^+ Tcon) but not innate lymphocyte populations (not shown). […] Thus, constitutive MHC class-II expression on IEC in the ileum causes local T cell activation and IFNγ secretion, consistent with the induction of a local cytokine feed-forward cascade that amplifies MHC class-II expression on IEC. In order to confirm that the induction of MHC class-II expression by IEC was a direct effect of IFNγ, intestinal organoids were cultured from the small intestine of B6.MHC class-II-GFP or B6.WT mice with IFNγ.
substance,measurement,value
IFNγ: cytokine added to intestinal organoid cultures; known to potently induce MHC class-II expression,MHC class-II expression by EpCAM+ epithelial cells in organoids,did so rapidly in the presence of IFNγ

# Reference: patent US20220023419A1, “INHIBITING INFLAMMATION” (THE COUNCIL OF THE QUEENSLAND INSTITUTE OF MEDICAL RESEARCH, priority 2018, published 2022)
